Here are results for five compounds from patent US20230201183A1, “METHODS TO […] ENHANCE MULTIPLE […] PROTEOSTASIS […] TO TREAT NEURODEGENERATION AND STORAGE DISEASES” (Northwestern University, priority 2021, published 2023).

Assay [1] deals with SNCA-3X DA neurons and α-syn overexpressing cell lines. As to the kind of experiment: ER stress induction, UPR markers (mRNA/protein). As to conditions: for XBP1-S / mRNA/protein levels of ER chaperones including GRP78, GRP94, and CANX: 30 nM Tg or 50 ng/ml BFA for 24 hours. The format is cell-based, human. The procedure: Total RNA was isolated from cells in a 24 or 12 well format using an RNeasy Mini Prep kit (QIAGEN). cDNA was synthesized by reverse transcriptase PCR (RT-PCR) using the RevertAid First Strand cDNA synthesis kit (Thermo Fisher Scientific). Quantitative PCR was performed on the Applied Biosystems 7500 Fast system using the cDNA and pre-designed TaqMan-primer probes for the target genes. The target mRNA expression was quantified relative to GAPDH or […] using the delta-delta-Ct method, and represented as a fold change.

In assay [2] the test system is midbrain neurons from a GD (N370S/84GG) and a PD patient that harbors a GBA1 mutation (N370S/wt). The experiment in a line: GCase maturation and α-syn western blot in GBA1 mutant patient neurons. The conditions noted are these: GD (N370S/84GG) and GBA-PD (N370S/wt) neurons; two weeks. Background: In western blotting, separated proteins are transferred to a membrane and probed.

Assay [3] concerns A53T iPSn. The experiment in a line: GCase solubility and maturation (sequential extraction, Endo H, western blot). As to conditions: 10 mM GlcNAc for 7 days. The format is cell-based, human. The procedure:
(§1) Protein extraction was done as described in detail (Stojkovska and Mazzulli, 2021). […] Supernatant was discarded and the cell pellets were subjected to homogenization in 1% Triton X-100 buffer (1% Triton X-100, 20 mM HEPES pH 7.4, 150 mM NaCl, 10% glycerol, 1 mM EDTA, 1.5 mM MgCl2, 1 mM phenylmethanesulfonyl fluoride (PMSF), 50 mM NaF, 2 mM Na orthovanadate, and a protease inhibitor cocktail (Roche diagnostics, https://www.roche.com, #11-836-170-001)) by homogenization. […] Protein band intensities was quantified by the ImageStudio software ver 3.1.
Analysis of post-ER GCase: This assay was performed as described in detail (Cuddy and Mazzulli, 2021). Briefly, 40 ug of lysate were subjected to Endoglycosidase H (Endo H) digestion as per the manufacturer's protocol (New England Biolabs, https://www.neb.com) at 37° C. for 2 h. Duplicate samples without enzyme were incubated under the same conditions serving as control (undigested samples). […] Endo H resistant bands migrating 62-64 kDa were measured as post-ER forms and maturation was calculated by quantifying the post-ER/ER ratios. Quantification was performed on Image Studio software (Licor). […] Standard error of the mean values were graphed, analyzed by student's t-test, and p values <0.05 were considered significant. […]

In assay [4] the test system is lysosomal GCase. As to the kind of experiment: Live-cell lysosomal GCase activity assay. Type of assay: cell-based, human. The conditions noted are these: live A53T patient neurons; 10 mM GlcNAc. The procedure:
Live-cell lysosomal GCase activity assay. The procedure and analysis method for the activity assay has been previously described in detail (Cuddy and Mazzulli, 2021). Briefly, one day prior to the assay, cells were treated with 1 mg/ml cascade dextran blue (Life Technologies) in a 96-well plate for 24 hours. This was followed by treatment of cells with DMSO or 200 nM bafilomycin A1 for 1 hour at 37° C. The cells were subjected to 1 hour pulse chase with an artificial fluorescent GCase substrate, 100 ug/ml 5-(pentafluoro-benzoylamino) fluorescein di-ß-D-glucopyranoside (PFB-FDGluc; Life Technologies), at 37° C. The fluorescence signal was measured every 30 minutes for the span of 3-4 hours on a plate reader (Ex=485 nm, Em=530 nm, for the GCase substrates; Ex=400 nm, Em=430 nm for cascade dextran blue). For the analysis, the GCase fluorescence signal was normalized to either lysosomal mass by using cascade dextran blue signal or total cell volume by quantifying CellTag 700 staining signal.
The transfection was performed with X-tremeGENE transfection reagent (Roche #6366236001) as described previously (Cuddy et al., 2019). Lentiviral particles were collected from the media and concentrated using Lenti-X concentrator (Clontech, #631232). […] The viral particle number and the number of plated cells was used to calculate the multiplicity of infection (MOI). […]

Assay [5] concerns A53T iPSn. The experiment in a line: α-syn sequential extraction/western blot. Type of assay: cell-based, human. The conditions noted are these: 10 mM GlcNAc for 7 days. The method, then:
as §1
The transfection was performed with X-tremeGENE transfection reagent (Roche #6366236001) as described previously (Cuddy et al., 2019). Lentiviral particles were collected from the media and concentrated using Lenti-X concentrator (Clontech, #631232). […] The viral particle number and the number of plated cells was used to calculate the multiplicity of infection (MOI). For GFPT2 Overexpression the A53T neurons were infected at MOI-3 and harvested 2 weeks post-infection. A53T neurons were infected with XBP1^s lentivirus at MOI-1 and harvested 16 days post-infection. Neurons infected with lentivirus expressing GFP was used as control.
iPSC neurons were supplemented with or without GlcNAc (A3286-sigma) at 10 mM for 7 days in PBS.

Assay [6] has as its system A53T iPSn. As to the kind of experiment: Neurofilament toxicity assay (neuron viability). The format is cell-based, human. The method, then:
iPSC-neurons 96 well format were fixed in 4% paraformaldehyde in PBS for 20 minutes, followed by incubation in 0.3% Triton X-100 (PBS) for 20 min. The cells were then blocked with Odyssey blocking buffer (Li-Cor) for 1 h. Anti-neurofilament antibody (1:1000, mouse IgG 2H3, Developmental Studies Hybridoma Bank, University of Iowa, Iowa City, Iowa) was incubated overnight in blocking buffer at 4° C., followed by washing in PBS with 0.1% Tween for 20 min. IRdye 800-conjugated anti-mouse IgG antibodies (1:1000 dilution, Li-Cor) was incubated in blocking buffer for 1 hour and CellTag™ 700 (Li-Cor) was also added for normalization. The Cells were washed four times in PBS-0.1% Tween and scanned on an Odyssey infrared imaging system (Li-Cor). Neurofilament intensity was determined by Image Studio software (version 2.1 Li-Cor) and normalized to […].
The transfection was performed with X-tremeGENE transfection reagent (Roche #6366236001) as described previously (Cuddy et al., 2019). Lentiviral particles were collected from the media and concentrated using Lenti-X concentrator (Clontech, #631232). […] The viral particle number and the number of plated cells was used to calculate the multiplicity of infection (MOI). For GFPT2 Overexpression the A53T neurons were infected at MOI-3 and harvested 2 weeks post-infection. […]

The test system of assay [7] is A53T iPSn. The experiment in a line: Hex B glycosylation and maturation by western blot. The format is cell-based, human. The method, then: as §1
(§2) . The transfection was performed with X-tremeGENE transfection reagent (Roche #6366236001) as described previously (Cuddy et al., 2019). Lentiviral particles were collected from the media and concentrated using Lenti-X concentrator (Clontech, #631232). […] The viral particle number and the number of plated cells was used to calculate the multiplicity of infection (MOI). For GFPT2 Overexpression the A53T neurons were infected at MOI-3 and harvested 2 weeks post-infection. A53T neurons were infected with XBP1^s lentivirus at MOI-1 and harvested 16 days post-infection. […]
(§3) Neurons were treated with or without 5 ug/ml tunicamycin (EMD Millipore/Calbiochem) for 24 hrs. Cells were extracted in 1% Triton X-100 buffer and analyzed by western blot for Hex B, Con-A, or GFPT2 as described in “Sequential protein extraction and western blotting analysis”. […]

The subject of assay [8] is A53T iPSn. The experiment in a line: N-glycosylated proteins by Con A-biotin western blot. Type of assay: cell-based, human. The procedure: as §1, §2, §3
In assay [9] the test system is wild-type or isogenic control neurons. As to the kind of experiment: ER stress induction and insoluble GCase in control neurons. Type of assay: cell-based, human. As to conditions: 30 nM Tg for 24 hours.
Assay [10] has as its system isogenic controls. As to the kind of experiment: GFPT2 western blot. Type of assay: cell-based, human. As to conditions: isogenic controls of SNCA-3x; tunicamycin. The method, then: as §1
(§4) Neurons were treated with or without 5 ug/ml tunicamycin (EMD Millipore/Calbiochem) for 24 hrs. Cells were extracted in 1% Triton X-100 buffer and analyzed by western blot for Hex B, Con-A, or GFPT2 as described in “Sequential protein extraction and western blotting analysis”. For mRNA measurement, total RNA was extracted and isolated as described in “Measurement of mRNA.” cDNA was synthesized and subjected to real-time PCR using Taqman-primer probe sets for GFPT2, XBP1U, and GRP78.

The test system of assay [11] is SNCA-3x iPSn. The experiment in a line: GFPT2 western blot. The format is cell-based, human. The conditions noted are these: tunicamycin. The procedure:
as §1, §4

Assay [12] concerns wt iPSn. As to the kind of experiment: Quantitative RT-PCR mRNA analysis. Type of assay: cell-based, human. As to conditions: tunicamycin 5 ug/ml, 24 h. The procedure: (§5) Measurement of RNA. Total RNA was extracted and isolated using the PureLink RNA Mini Kit (Thermofisher Scientific). cDNA was synthesized using the RevertAid First Strand cDNA Synthesis Kit (Thermofisher Scientific). Real-time PCR was performed on an Applied Biosystems 7500 Fast system using pre-designed Taqman-primer probe sets: DPAGT1 (Hs00609752_m1), GFPT2 (Hs01049570_m1), XBP1U (Hs02856596_m1), XBP1s (Hs03929085_g1), GRP78 (Hs99999174_m1), HSP90B1/GRP94 (Hs00427665_g1), GBA1 (Hs00164683_m1), HexB (Hs01077594_m1) and ACTB (Hs01060665_g1). The quantifications represent the fold change of target mRNA expression normalized to beta-actin (ACTB) levels by delta-Ct method. The values are mean and s.e.m of biological replicates (n=3-6) with two technical replicates for each.
as §4

Assay [13] relates to control iPSn. As to the kind of experiment: N-glycosylated proteins by Con A-biotin western blot. The format is cell-based, human. As to conditions: tunicamycin 5 ug/ml, 24 hours. The procedure:
as §1, §4

Assay [14] has as its system isogenic control iPSn. The experiment in a line: Hex B glycosylation by western blot. The format is cell-based, human. The conditions noted are these: control cells; tunicamycin. The method, then: as §1, §4
Assay [15] concerns A53T iPSn. The experiment in a line: Quantitative RT-PCR mRNA analysis. The format is cell-based, human. The procedure: as §5
. The transfection was performed with X-tremeGENE transfection reagent (Roche #6366236001) as described previously (Cuddy et al., 2019). Lentiviral particles were collected from the media and concentrated using Lenti-X concentrator (Clontech, #631232). […]
as §3

For `C[C@H]1CCC/C=C/[C@@H]2C[C@H](O)C[C@H]2[C@H](O)/C=C/C(=O)O1` [BFA], in [1], the XBP1-S entry is listed as “dramatic upregulation of XBP1-S”; the “mRNA/protein levels of ER chaperones including GRP78, GRP94, and CANX” value was “significantly increased mRNA/protein levels of ER chaperones”.

`C#Cc1cccc(-c2cc(=O)n(C)c3ccc([C@](O)(c4ccc(Cl)cc4)c4cncn4C)cc23)c1` [FTI, 6-[(R)-(4-chlorophenyl)hydroxy(1-methyl-1H-imidazol-5-yl)methyl]-4-(3-ethynylphenyl)-1-methyl-2(1H)-Quinolinone]: in assay [2], the GCase maturation entry is on record as “minimal effects” and the α-syn levels result is given as “minimal effects”.

For the compound `CC(=O)NC1C(O)[C@H](O)C(CO)O[C@H]1O` (stereo partly drawn) [GlcNAc, β-D-(acetylamino)-2-deoxy-glucopyranose], the “increase in the levels of mature, soluble GCase” value in assay [3] came to 2 fold. In addition, the “increase of GCase activity levels” value in assay [4] is around 2 fold. Besides, the “reduction in pathological α-syn” value in assay [5] is around 75%. Besides, in [6], the “neuron viability (neurofilament / neurite content)” value was “improved neuron viability”. The “glycosylated and mature forms of Hex B” value in assay [7] (10 mM GlcNAc for 7 days) is “enhanced the glycosylated and mature forms of Hex B”. In assay [8], the “N-glycosylated proteins (Con A)” value is on record as “completely restored the levels of N-glycosylation to control levels”.

Turning to `C/C=C(/C)C(=O)O[C@H]1C(C)=C2[C@H]([C@@H]1OC(=O)CCCCCCC)[C@@](C)(OC(C)=O)C[C@H](OC(=O)CCC)[C@@]1(O)[C@H]2OC(=O)[C@@]1(C)O` [Tg], in assay [1], the XBP1-S entry is given as “dramatic upregulation of XBP1-S”; the “mRNA/protein levels of ER chaperones including GRP78, GRP94, and CANX” value was “significantly increased mRNA/protein levels of ER chaperones”. Besides, in assay [1] (isogenic controls and SNCA-3X DA neurons, 30 nM Tg), the phospho-eIF2α result is reported as “increased phospho-eIF2α to a similar degree”. In [9], the “GRP78 expression (ER stress)” value is recorded as “increased GRP78 expression”.

tunicamycin: the “elevation of GFPT2 protein” value in assay [10] stood at 60%. Moreover, the GFPT2 protein result in [11] is “no effect”. The “upregulation of GFPT2 mRNA” value is given as around 2 fold in assay [12] and around 1.2 fold in assay [15] (A53T iPSn, tunicamycin 5 ug/ml, 24 h). Further, the “reduction of N-glycans” value in [13] is recorded as around 50%. In addition, in assay [14], the “Hex B glycosylation” value is given as “blocked Hex B glycosylation”. Also, in assay [15] (A53T iPSn versus Corr, tunicamycin), the “UPR-responsive transcripts XBP1 and GRP78” value is listed as “less responsive”. The “Hex B response to tunicamycin” value in assay [7] (A53T iPSn compared to controls) is given as “reduced response”. Also, in assay [8], the “N-glycosylated proteins (Con A)” value was “no effect”.
